Values after ≈ are worked out from the molar mass of the structure shown.
Assays:
Assay type in all cases: cell-based, Staphylococcus aureus
Staph aureus 2811 = test: MIC, microtiter broth dilution (CLSI M7-A7), Assay 1, Table 12 column D, no serum; conditions: for MIC: Staphylococcus aureus, 2811, Staph aureus 2811, Assay 1, no serum; for MIC, column D: Staph aureus 2811, Assay 1, no serum
Procedure, shortened: (§1)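 Broth microdilution in microtiter trays per CLSI M7-A7, interpreted per M100-S16; MIC (μg/ml) is the lowest concentration preventing visible growth. Serum condition used Mueller-Hinton Broth with 50% pooled inactivated human serum. Repeated runs reported as geometric mean.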

Staph aureus 1095 MRSA = test: MIC, microtiter broth dilution (CLSI M7-A7), Assay 1, Table 12 column A, no serum; conditions: Assay 1, no serum; for MIC: Staphylococcus aureus, MRSA
Procedure, shortened: as §1

Staph aureus 1146 [1] = test: MIC, microtiter broth dilution (CLSI M7-A7), Assay 1, Table 12 column B, no serum; conditions: for MIC: Staphylococcus aureus, 1146, Staph aureus 1146, Assay 1, no serum; for MIC, column B: Staph aureus 1146, Assay 1, no serum
Procedure, shortened: as §1

Staph aureus 2812 = test: MIC, microtiter broth dilution (CLSI M7-A7), Assay 1, Table 12 column E, no serum; conditions: for MIC: Staphylococcus aureus, 2812, Staph aureus 2812, Assay 1, no serum; for MIC, column E: Staph aureus 2812, Assay 1, no serum
Procedure, shortened: as §1

Staph aureus 1146 [2] = test: MIC in Mueller-Hinton Broth with 50% pooled inactivated human serum, Assay 1, Table 12; conditions: for MIC: Staphylococcus aureus, 1146, Staph aureus 1146, Assay 1, 50% human serum, read-out: MIC, column C; for MIC, column C: Staph aureus 1146, Assay 1, 50% human serum
Procedure, shortened: as §1

Compound	MIC (Staph aureus 2811) [µg/mL]	MIC (Staph aureus 1095 MRSA) [µg/mL]	MIC (Staph aureus 1146 [1]) [µg/mL]	MIC (Staph aureus 2812) [µg/mL]	MIC (Staph aureus 1146 [2]) [µg/mL]	MIC, column D (Staph aureus 2811) [µg/mL]	MIC, column A (Staph aureus 1095 MRSA) [µg/mL]	MIC, column B (Staph aureus 1146 [1]) [µg/mL]	MIC, column E (Staph aureus 2812) [µg/mL]	MIC, column C (Staph aureus 1146 [2]) [µg/mL]
O=C(O)[C@H]1CN(C2CC(c3c(F)cccc3F)C2)CC[C@H]1CCC(O)c1c(F)cnc2ccc(O)nc12 (stereo partly drawn) [Example 201, (3R,4R)-1-[3-(2,6-difluorophenyl)cyclobutyl]-4-[3-(3-fluoro-6-hydroxy-1,5-naphthyridin-4-yl)-3-hydroxypropyl]piperidine-3-carboxylic acid]	2 (≈ 3.88 µM)	16 (≈ 31 µM)	2 (≈ 3.88 µM)	4 (≈ 7.76 µM)	8 (≈ 15.5 µM)	–	–	–	–	–
COc1ccc2nccc(C(O)CC[C@@H]3CCN(C4CC(Cc5cc(F)ccc5F)C4)C[C@@H]3C(=O)O)c2c1 (stereo partly drawn) [Example 202, (3R,4R)-1-[3-(2,5-difluorobenzyl)cyclobutyl]-4-[3-hydroxy-3-(6-methoxyquinolin-4-yl)propyl]piperidine-3-carboxylic acid]	2 (≈ 3.81 µM)	8 (≈ 15.2 µM)	2 (≈ 3.81 µM)	4 (≈ 7.62 µM)	64 (≈ 122 µM)	–	–	–	–	–
COc1ccc2ncc(Cl)c(C(O)CC[C@@H]3CCN(C4CC(c5cc(F)ccc5F)C4)C[C@@H]3C(=O)O)c2c1 (stereo partly drawn) [Example 203, (3R,4R)-4-[3-(3-chloro-6-methoxyquinolin-4-yl)-3-hydroxypropyl]-1-[3-(2,5-difluorophenyl)cyclobutyl]piperidine-3-carboxylic acid]	–	–	–	–	–	0.125 (≈ 0.229 µM)	0.250 (≈ 0.459 µM)	0.125 (≈ 0.229 µM)	0.125 (≈ 0.229 µM)	16.0 (≈ 29.4 µM)
COc1ccc2ncc(Cl)c(C(O)CC[C@@H]3CCN(C4CC(c5cc(F)ccc5F)C4)C[C@@H]3C(=O)O)c2c1 (stereo partly drawn) [Example 204, (3R,4R)-4-[3-(3-chloro-6-methoxyquinolin-4-yl)-3-hydroxypropyl]-1-[3-(2,5-difluorophenyl)cyclobutyl]piperidine-3-carboxylic acid]	–	–	–	–	–	0.125 (≈ 0.229 µM)	0.250 (≈ 0.459 µM)	0.125 (≈ 0.229 µM)	0.250 (≈ 0.459 µM)	4.00 (≈ 7.34 µM)
COc1ccc2ncc(F)c(C(O)CC[C@@H]3CCN(C4CC(c5cc(F)ccc5F)C4)C[C@@H]3C(=O)O)c2n1 (stereo partly drawn) [Example 205, (3R,4R)-1-[3-(2,5-difluorophenyl)cyclobutyl]-4-[3-(3-fluoro-6-methoxy-1,5-naphthyridin-4-yl)-3-hydroxypropyl]piperidine-3-carboxylic acid]	< 0.0625	< 0.0625	< 0.0625	< 0.0625	2 (≈ 3.78 µM)	–	–	–	–	–
COc1ccc2ncc(Cl)c(CCCC3(C(=O)O)CCN(C4CC(c5cc(F)ccc5F)C4)C3)c2c1 (stereo not shown) [Example 207, 3-[3-(3-chloro-6-methoxyquinolin-4-yl)propyl]-1-[3-(2,5-difluorophenyl)cyclobutyl] pyrrolidine-3-carboxylic acid]	< 0.0625	< 0.0625	< 0.0625	< 0.0625	64 (≈ 124 µM)	–	–	–	–	–
COc1ccc2nccc([C@@H](O)CC[C@@H]3CCN(C4CC(c5cccc(OC)c5F)C4)C[C@@H]3C(=O)O)c2c1 (stereo partly drawn) [Example 208, (3R,4R)-1-[3-(2-fluoro-3-methoxyphenyl)cyclobutyl]-4-[(3S)-3-hydroxy-3-(6-methoxyquinolin-4-yl)propyl]piperidine-3-carboxylic acid]	32 (≈ 61.2 µM)	64 (≈ 122 µM)	32 (≈ 61.2 µM)	64 (≈ 122 µM)	> 64	–	–	–	–	–
COc1ccc2ncc(Cl)c(C(O)CC[C@@H]3CCN(C4CC(c5cc(F)ccc5F)C4)C[C@@H]3C(=O)O)c2c1 (stereo partly drawn) [Example 209, (3R,4R)-4-[3-(3-chloro-6-methoxyquinolin-4-yl)-3-hydroxypropyl]-1-[3-(2,5-difluorophenyl)cyclobutyl]piperidine-3-carboxylic acid]	–	–	–	–	–	<0.0625	<0.0625	<0.0625	<0.0625	1.00 (≈ 1.83 µM)
COc1ccc2ncc(Cl)c(C(O)CC[C@@H]3CCN(C4CC(c5cc(F)ccc5F)C4)C[C@@H]3C(=O)O)c2c1 (stereo partly drawn) [Example 210, (3R,4R)-4-[3-(3-chloro-6-methoxyquinolin-4-yl)-3-hydroxypropyl]-1-[3-(2,5-difluorophenyl)cyclobutyl]piperidine-3-carboxylic acid]	–	–	–	–	–	<0.0625	<0.0625	<0.0625	<0.0625	16.0 (≈ 29.4 µM)
COc1ccc2ncc(Cl)c(C(O)CC[C@@H]3CCN(C4CC(c5ccccc5)C4)C[C@@H]3C(=O)O)c2c1 (stereo partly drawn) [Example 211, (3R,4R)-4-[3-(3-chloro-6-methoxyquinolin-4-yl)-3-hydroxypropyl]-1-(3-phenylcyclobutyl)piperidine-3-carboxylic acid]	–	–	–	–	–	<0.0625	<0.0625	<0.0625	<0.0625	0.250 (≈ 0.491 µM)
COc1ccc2ncc(Cl)c(C(O)CC[C@@H]3CCN(C4CC(c5ccccc5)C4)C[C@@H]3C(=O)O)c2c1 (stereo partly drawn) [Example 212, (3R,4R)-4-[3-(3-chloro-6-methoxyquinolin-4-yl)-3-hydroxypropyl]-1-(3-phenylcyclobutyl)piperidine-3-carboxylic acid]	–	–	–	–	–	<0.0625	<0.0625	<0.0625	<0.0625	2.00 (≈ 3.93 µM)
COc1ccc2ncc(Cl)c(C(O)CC[C@@H]3CCN(C4CC(c5c(F)cccc5F)C4)C[C@@H]3C(=O)O)c2c1 (stereo partly drawn) [Example 213, (3R,4R)-4-[3-(3-chloro-6-methoxyquinolin-4-yl)-3-hydroxypropyl]-1-[3-(2,6-difluorophenyl)cyclobutyl]piperidine-3-carboxylic acid]	–	–	–	–	–	<0.0625	<0.0625	<0.0625	<0.0625	0.500 (≈ 0.917 µM)
COc1ccc2ncc(Cl)c(C(O)CC[C@@H]3CCN(C4CC(c5c(F)cccc5F)C4)C[C@@H]3C(=O)O)c2c1 (stereo partly drawn) [Example 214, (3R,4R)-4-[3-(3-chloro-6-methoxyquinolin-4-yl)-3-hydroxypropyl]-1-[3-(2,6-difluorophenyl)cyclobutyl]piperidine-3-carboxylic acid]	–	–	–	–	–	<0.0625	<0.0625	<0.0625	<0.0625	2.00 (≈ 3.67 µM)
COc1ccc2ncc(F)c(C(O)CC[C@@H]3CCN([C@H]4C[C@H](c5c(F)cccc5F)C4)C[C@@H]3C(=O)O)c2c1 (stereo partly drawn) [Example 215, (3R,4R)-1-[trans-3-(2,6-difluorophenyl)cyclobutyl]-4-[3-(3-fluoro-6-methoxyquinolin-4-yl)-3-hydroxypropyl] piperidine-3-carboxylic acid]	< 0.0625	< 0.0625	< 0.0625	< 0.0625	1 (≈ 1.89 µM)	–	–	–	–	–
COc1ccc2nccc([C@@H](O)CC[C@@H]3CCN(C4CC(c5ccc(F)c(C#N)c5)C4)C[C@@H]3C(=O)O)c2c1 (stereo partly drawn) [Example 216, (3R,4R)-1-[3-(3-cyano-4-fluorophenyl)cyclobutyl]-4-[(3S)-3-hydroxy-3-(6-methoxyquinolin-4-yl)propyl] piperidine-3-carboxylic acid]	8 (≈ 15.5 µM)	> 64	16 (≈ 30.9 µM)	32 (≈ 61.8 µM)	64 (≈ 124 µM)	–	–	–	–	–
COc1ccc2ncc(F)c(C(O)CC[C@@H]3CCN(C4CC(c5cc(F)ccc5F)C4)C[C@@H]3C(=O)O)c2n1 (stereo partly drawn) [Example 217, (3R,4R)-1-[3-(2,5-difluorophenyl)cyclobutyl]-4-[3-(3-fluoro-6-methoxy-1,5-naphthyridin-4-yl)-3-hydroxypropyl]piperidine-3-carboxylic acid]	–	–	–	–	–	0.125 (≈ 0.236 µM)	0.125 (≈ 0.236 µM)	0.0600 (≈ 0.113 µM)	0.0600 (≈ 0.113 µM)	2.00 (≈ 3.78 µM)
COc1ccc2ncc(F)c(C(O)CC[C@@H]3CCN(C4CC(c5cc(F)ccc5F)C4)C[C@@H]3C(=O)O)c2n1 (stereo partly drawn) [Example 218, (3R,4R)-1-[3-(2,5-difluorophenyl)cyclobutyl]-4-[3-(3-fluoro-6-methoxy-1,5-naphthyridin-4-yl)-3-hydroxypropyl]piperidine-3-carboxylic acid]	–	–	–	–	–	<0.0625	0.125 (≈ 0.236 µM)	<0.0625	<0.0625	2.00 (≈ 3.78 µM)

Source: US20080280879A1, “SUBSTITUTED HETEROCYCLIC DERIVATIVES AND THEIR PHARMACEUTICAL USE AND COMPOSITIONS” (priority 2007, published 2008)
